Results from patent publication US12708630B2, “Combined therapy of 4′-thio-5-aza-2′-deoxycytidine and Venetoclax” (PINOTBIO, INC., priority 2021, dated 2026).

Experiments:
Assay in all cases: drug activity profiling cytotoxicity
Format in all cases: cell-based
[1] = test system: BC-1; settings: Homo sapiens, BC1; BC-1 cell line, B-cell lymphoma; read-out: Aza-T-dCyd IC50
Method: (§1) To obtain a biomarker for Aza-T-dCyd, drug activity profiling analysis was performed to evaluate the cytotoxicity of 200 cell lines.
(§2) The drug responsiveness analysis of Aza-T-dCyd through drug activity profiling and genomic analysis of 200 cell lines confirmed the potent efficacy of Aza-T-dCyd in various solid tumors (Table 2).

[2] = test system: DK-MG; settings: DK-MG cell line, CNS (Glioma); read-out: Aza-T-dCyd IC50
Method: as §1, §2

[3] = test system: SCC-9; settings: Homo sapiens; SCC-9 cell line, Head and Neck; read-out: Aza-T-dCyd IC50
Method: as §1, §2

[4] = test system: SW480; settings: Homo sapiens; SW480 cell line, Colon; read-out: Aza-T-dCyd IC50
Method: as §1, §2

[5] = test system: SW872; settings: Homo sapiens; SW872 cell line, Sarcoma; read-out: Aza-T-dCyd IC50
Method: as §1, §2

[6] = test system: BT474; settings: Homo sapiens, BT-474; BT474 cell line, Breast; read-out: Aza-T-dCyd IC50
Method: as §1, §2

[7] = test system: NU-DUL-1; settings: Homo sapiens; NU-DUL-1 cell line, B-cell lymphoma; read-out: Aza-T-dCyd IC50
Method: as §1, §2

[8] = test system: MV-4-11; settings: Homo sapiens, MV4-11; MV-4-11 cell line, AML; read-out: Aza-T-dCyd IC50
Method: as §1, §2

[9] = test system: HuCCT1; settings: Homo sapiens, HuCCT-1; HuCCT1 cell line, Liver; read-out: Aza-T-dCyd IC50
Method: as §1, §2

[10] = test system: SCC-25; settings: Homo sapiens; SCC-25 cell line, Head and Neck; read-out: Aza-T-dCyd IC50
Method: as §1, §2

[11] = test system: WM-266-4; settings: Homo sapiens; WM-266-4 cell line, Skin (Melanoma); read-out: Aza-T-dCyd IC50
Method: as §1, §2

[12] = test system: Hs 821.T; settings: Hs 821.T cell line, Sarcoma; read-out: Aza-T-dCyd IC50
Method: as §1, §2

[13] = test system: ACHN; settings: Homo sapiens; ACHN cell line, Kidney; read-out: Aza-T-dCyd IC50
Method: as §1, §2

[14] = test system: TT; settings: Homo sapiens; TT cell line, Endocrine (Thyroid); read-out: Aza-T-dCyd IC50
Method: as §1, §2

[15] = test system: AGS; settings: Homo sapiens; AGS cell line, Stomach; read-out: Aza-T-dCyd IC50
Method: as §1, §2

[16] = test system: NCI-H295R; settings: Homo sapiens; NCI-H295R cell line, Endocrine (Adrenal gland); read-out: Aza-T-dCyd IC50
Method: as §1, §2

[17] = test system: NCI-H747; settings: Homo sapiens; NCI-H747 cell line, Colon; read-out: Aza-T-dCyd IC50
Method: as §1, §2

[18] = test system: Raji; settings: Homo sapiens; Raji cell line, Burkitt's lymphoma; read-out: Aza-T-dCyd IC50
Method: as §1, §2

[19] = test system: ARH-77; settings: Homo sapiens; ARH-77 cell line, B-cell lymphoma; read-out: Aza-T-dCyd IC50
Method: as §1, §2

[20] = test system: NCIH441; settings: Homo sapiens, NCI-H441; NCIH441 cell line, Lung (NSCLC); read-out: Aza-T-dCyd IC50
Method: as §1, §2

[21] = test system: SKMES1; settings: Homo sapiens, SK-MES-1; SKMES1 cell line, Lung (NSCLC); read-out: Aza-T-dCyd IC50
Method: as §1, §2

[22] = test system: ChaGoK1; settings: Homo sapiens, ChaGo-K-1; ChaGoK1 cell line, Lung (NSCLC); read-out: Aza-T-dCyd IC50
Method: as §1, §2

[23] = test system: HCT-116; settings: Homo sapiens; HCT-116 cell line, Colon; read-out: Aza-T-dCyd IC50
Method: as §1, §2

[24] = test system: CFPAC-1; settings: Homo sapiens; CFPAC-1 cell line, Pancreas; read-out: Aza-T-dCyd IC50
Method: as §1, §2

[25] = test system: DU145; settings: Homo sapiens, DU-145; DU145 cell line, Prostate; read-out: Aza-T-dCyd IC50
Method: as §1, §2

[26] = test system: SU-DHL-4; settings: Homo sapiens; SU-DHL-4 cell line, B-cell lymphoma; read-out: Aza-T-dCyd IC50
Method: as §1, §2

[27] = test system: FaDu; settings: Homo sapiens; FaDu cell line, Head and Neck; read-out: Aza-T-dCyd IC50
Method: as §1, §2

[28] = test system: U-87 MG; settings: Homo sapiens; U-87 MG cell line, CNS (Glioma); read-out: Aza-T-dCyd IC50
Method: as §1, §2

[29] = test system: BV-173; settings: Homo sapiens; BV-173 cell line, CML; read-out: Aza-T-dCyd IC50
Method: as §1, §2

[30] = test system: PFSK-1; settings: Homo sapiens; PFSK-1 cell line, CNS (Glioma); read-out: Aza-T-dCyd IC50
Method: as §1, §2

Nc1ncn([C@H]2CC(O)[C@@H](CO)S2)c(=O)n1 (stereo partly drawn) [Aza-T-dCyd, 4′-thio-5-aza-2′-deoxycytidine]
IC50 [1]: 338 nM
IC50 [2]: > 10 µM
IC50 [3]: 1830 nM
IC50 [4]: 1580 nM
IC50 [5]: 730 nM
IC50 [6]: > 10 µM
IC50 [7]: 24.5 nM
IC50 [8]: 183 nM
IC50 [9]: 105 nM
IC50 [10]: 126 nM
IC50 [11]: 429 nM
IC50 [12]: > 10 µM
IC50 [13]: 231 nM
IC50 [14]: > 10 µM
IC50 [15]: 58.4 nM
IC50 [16]: > 10 µM
IC50 [17]: 319 nM
IC50 [18]: 75.2 nM
IC50 [19]: 413 nM
IC50 [20]: 1300 nM
IC50 [21]: 314 nM
IC50 [22]: 3.41 µM
IC50 [23]: 100 nM
IC50 [24]: 1750 nM
IC50 [25]: 432 nM
IC50 [26]: 17.5 nM
IC50 [27]: 208 nM
IC50 [28]: 1640 nM
IC50 [29]: 5.32 nM
IC50 [30]: 7.61 µM
